Literature values in article PMC11859340, “The Therapeutic Potential of Spirooxindoles in Cancer: A Focus on p53–MDM2 Modulation” (Pharmaceuticals, 2025).
Where two headings read alike, the source gives them in different places.

Columns and labels:
[1] = test system: HEK 293T (embryonic kidney non-cancer); set-up: method as in PMID 28987608; details: MTT, read-out: IC50 against HEK 293T
[2] = test system: HCT116 (p53^+/+); set-up: method as in PMID 28987608; details: MTT; read-out: IC50 against HCT116 (p53^+/+)
[3] = test system: HCT116 (p53^−/−); set-up: method as in PMID 28987608; details: MTT; read-out: IC50 against HCT116 (p53^−/−)
[4] = test system: MCF7; set-up: method as in PMID 28987608; details: MTT; read-out: IC50 against MCF7
[5] = test system: MDA-MB-231 (breast); set-up: method as in PMID 28987608; details: MTT; read-out: IC50 against MDA-MB-231
[6] = test system: p53-wild-type MCF7 (breast cancer) cell line; set-up: method as in PMID 33725632
[7] = test system: HeLa (cervical); set-up: method as in doi:10.31788/RJC.2023.1638506; details: MTT; read-out: IC50 against HeLa
[8] = test system: MCF7 (breast); set-up: method as in doi:10.31788/RJC.2023.1638506; details: MTT; read-out: IC50 against MCF7
[9] = test system: MCF7 (breast) cancer cell line; set-up: method as in doi:10.1016/j.molstruc.2023.137026
[10] = test system: MCF7 (breast); set-up: method as in PMID 26256638; details: MTT; read-out: IC50 against MCF7
[11] = test system: MDA-MB-231; set-up: method as in doi:10.3390/separations10040225; details: MTT; read-out: IC50 against MDA-MB-231
[12] = test system: PC3; set-up: method as in doi:10.3390/separations10040225; details: MTT; read-out: IC50 against PC3
[13] = test system: HepG2 (liver); set-up: method as in PMID 30802707; details: MTT; read-out: IC50 against HepG2
[14] = test system: HCT116 (colon); set-up: method as in PMID 30802707; details: MTT; read-out: IC50 against HCT116
[15] = test system: VERO-B (normal) cells
[16] = test system: PC-3 (prostate); set-up: method as in PMID 30802707; details: MTT; read-out: IC50 against PC-3
[17] = test system: HCT116 (colon); set-up: method as in PMID 30508794; details: MTT; read-out: IC50 against HCT116
[18] = set-up: method as in PMID 30508794; details: MTT; read-out: IC50 against PC3
[19] = test system: HepG2 (liver); set-up: method as in PMID 30508794; details: MTT; read-out: IC50 against HepG2
[20] = test system: PC3 (prostate); set-up: method as in PMID 34684885; details: MTT; read-out: IC50 against PC3

For O=C1Nc2ccc(Br)cc2C12N(c1ccccc1Cl)N=C(c1cccc(Cl)c1)N2c1cccc(Cl)c1 (centres unmarked), the IC50 [1] is given as 21.4 ± 7.4 µM, the IC50 [2] is given as 13.9 ± 1.1 µM and the IC50 [3] is given as 17.7 ± 1.3 µM. For the same compound, the IC50 [4] was 9.5 ± 3.1 µM and the IC50 [5] was 7.6 ± 2.4 µM.

For O=C1Nc2ccc(Cl)cc2C12N(c1ccccc1)N=C(c1ccccc1)N2c1cccc(Cl)c1 (centres unmarked), the IC50 [1] is listed as over 100 µM, the IC50 [2] is listed as 16.3 ± 0.2 µM and the IC50 [3] is listed as 17.9 ± 0.6 µM. For the same compound, the IC50 [4] was 9.8 ± 1.5 µM and the IC50 [5] was 8.9 ± 1.9 µM.

For Cc1noc([C@@H]2[C@@H](c3ccccc3)[C@H](C(F)(F)F)N[C@@]23C(=O)Nc2cc(Br)ccc23)c1[N+](=O)[O-], the IC50 ([6]; absence of Fer-1) is listed as 0.17 µM and the IC50 ([6]; presence of Fer-1) is listed as 13.7 µM.

In the case of Cc1noc([C@@H]2[C@@H](c3ccccc3)[C@H](C(F)(F)F)N[C@@]23C(=O)Nc2cc(Cl)ccc23)c1[N+](=O)[O-], the IC50 ([6]; absence of Fer-1) is given as 0.12 µM and the IC50 ([6]; presence of Fer-1) is given as 13.5 µM.

For CC(C)(C)OC(=O)N1CCC(c2nc(/C=C3\CCC4(C3=O)C3CCCCN3C3(C(=O)Nc5ccccc53)C4c3csc(C4CCN(C(=O)OC(C)(C)C)CC4)n3)cs2)CC1 (centres unmarked), the IC50 [7] is given as 76.3 µM and the IC50 [8] is given as 63.4 µM.

In the case of CCCN1C(=O)[C@]2(N[C@@H](c3ccc(F)cc3)[C@@]3(Sc4c(C(=O)C(=O)OC)c5ccccc5n4C3=O)[C@H]2C(=O)OC)c2ccc(Cl)cc21, the cell viability ([9]; MCF7, at 25 μg/mL) is listed as “about 80%”.

For CCCN1C(=O)[C@]2(N[C@@H](c3ccccc3)[C@@]3(Sc4c(C(=O)C(=O)OC)c5ccccc5n4C3=O)[C@H]2C(=O)OC)c2ccc(Cl)cc21, the cell viability ([9]; MCF7, at 200 μg/mL) is listed as 80%.

In the case of CN1C[C@H](c2cccc(F)c2)[C@@H](C(=O)C2CC[C@H]3[C@@H]4CC=C5C[C@@H](O)CC[C@]5(C)[C@H]4CC[C@]23C)[C@]12C(=O)Nc1ccccc12 (some centres unmarked) [23 (R = 3-FC6H4)], the IC50 [10] is given as 4.6 ± 0.7 µM.

For O=C(c1nc2ccccc2[nH]1)[C@H]1[C@H](c2cccs2)C2CC3CCCCC3N2[C@]12C(=O)Nc1ccc(Cl)cc12 (some centres unmarked) [39 (R = 2-thienyl)], the IC50 [11] is listed as 3.8 ± 0.205 µM and the IC50 [12] is listed as 4.314 ± 0.036 µM.

For O=C(/C=C/c1ccc(Cl)cc1Cl)[C@H]1[C@H](c2ccc(Cl)cc2Cl)C2CSCN2[C@]12C(=O)Nc1ccccc12 (some centres unmarked) [49 (R = R^1 = 2,4-Cl2C6H3, R^2 = H)], the IC50 [13] is given as 0.85 ± 0.2 µM, the IC50 [14] is given as 2 ± 0.6 µM and the IC50 [15] is given as 5 ± 0.245 µM. For the same compound, the IC50 [16] was 1.8 ± 0.3 µM.

In the case of O=C(c1c[nH]c2ccccc12)C1C(c2ccc(C(F)(F)F)cc2)C2CSCN2C12C(=O)Nc1ccccc12 (centres unmarked) [51 (R = 4-F3CC6H4)], the IC50 [17] is listed as 7 ± 0.27 µM, the IC50 [18] is listed as 6 ± 0.23 µM and the IC50 [19] is listed as 5.5 ± 0.2 µM.

In the case of O=C1/C(=C/c2ccccc2)CCC[C@@]12[C@H](c1ccccc1)[C@H]1C[C@@H]3CCCC[C@@H]3N1[C@]21C(=O)Nc2cc(Cl)ccc21 [70 (R = Ph, R’ = 6-Cl)], the IC50 [20] is listed as 3.7 ± 1 µM.
